Measured values from patent US8192962B2, “Processes for detecting toxic substances” (Daikin Industries, Ltd., priority 2001, dated 2012).

Test system: Genes belonging to other category
Assay: DNA chip mRNA expression in yeast, genes belonging to other category (Table 9)
Format: cell-based, Saccharomyces cerevisiae S288C
Outline: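 Measured as treated-to-untreated fluorescence ratio on a full-genome yeast DNA chip. Cells (S288C, YPD, 25° C.) were exposed in log phase for two hours to one chemical, dosed to curb growth without killing.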

COc1cc(CNC(=O)CCCCC=CC(C)C)ccc1O [(12), 8-methyl-N-vanillyl-6-nonenamide]
The level of expressed mRNA in the presence of chemical substance/The level of expressed mRNA in the absence of chemical substance (yeast gene YAR010C): 1.0
The level of expressed mRNA in the presence of chemical substance/The level of expressed mRNA in the absence of chemical substance (yeast gene YBL005W-A): 1.6
The level of expressed mRNA in the presence of chemical substance/The level of expressed mRNA in the absence of chemical substance (yeast gene YBL041W): 1.6
The level of expressed mRNA in the presence of chemical substance/The level of expressed mRNA in the absence of chemical substance (yeast gene YBL043W): 0.9
The level of expressed mRNA in the presence of chemical substance/The level of expressed mRNA in the absence of chemical substance (yeast gene YBL078C): 3.1
The level of expressed mRNA in the presence of chemical substance/The level of expressed mRNA in the absence of chemical substance (yeast gene YBL102W): 0.9
The level of expressed mRNA in the presence of chemical substance/The level of expressed mRNA in the absence of chemical substance (yeast gene YBR212W): 0.9
The level of expressed mRNA in the presence of chemical substance/The level of expressed mRNA in the absence of chemical substance (yeast gene YBR214W): 1.2
The level of expressed mRNA in the presence of chemical substance/The level of expressed mRNA in the absence of chemical substance (yeast gene YCL020W): 1.5
The level of expressed mRNA in the presence of chemical substance/The level of expressed mRNA in the absence of chemical substance (yeast gene YCL027W): 0.8
The level of expressed mRNA in the presence of chemical substance/The level of expressed mRNA in the absence of chemical substance (yeast gene YCL067C): 1.0
The level of expressed mRNA in the presence of chemical substance/The level of expressed mRNA in the absence of chemical substance (yeast gene YCR004C): 0.8
The level of expressed mRNA in the presence of chemical substance/The level of expressed mRNA in the absence of chemical substance (yeast gene YCR067C): 0.9
The level of expressed mRNA in the presence of chemical substance/The level of expressed mRNA in the absence of chemical substance (yeast gene YCR071C): 1.1
The level of expressed mRNA in the presence of chemical substance/The level of expressed mRNA in the absence of chemical substance (yeast gene YCR088W): 1.3
The level of expressed mRNA in the presence of chemical substance/The level of expressed mRNA in the absence of chemical substance (yeast gene YCR096C): 1.0
The level of expressed mRNA in the presence of chemical substance/The level of expressed mRNA in the absence of chemical substance (yeast gene YDL008W): 1.2
The level of expressed mRNA in the presence of chemical substance/The level of expressed mRNA in the absence of chemical substance (yeast gene YDL119C): 0.9
The level of expressed mRNA in the presence of chemical substance/The level of expressed mRNA in the absence of chemical substance (yeast gene YDL197C): 0.8
The level of expressed mRNA in the presence of chemical substance/The level of expressed mRNA in the absence of chemical substance (yeast gene YDL238C): 0.9
The level of expressed mRNA in the presence of chemical substance/The level of expressed mRNA in the absence of chemical substance (yeast gene YDR055W): 1.4
The level of expressed mRNA in the presence of chemical substance/The level of expressed mRNA in the absence of chemical substance (yeast gene YDR084C): 0.7
The level of expressed mRNA in the presence of chemical substance/The level of expressed mRNA in the absence of chemical substance (yeast gene YDR085C): 1.6
The level of expressed mRNA in the presence of chemical substance/The level of expressed mRNA in the absence of chemical substance (yeast gene YDR104C): 1.1
The level of expressed mRNA in the presence of chemical substance/The level of expressed mRNA in the absence of chemical substance (yeast gene YDR115W): 0.9
The level of expressed mRNA in the presence of chemical substance/The level of expressed mRNA in the absence of chemical substance (yeast gene YDR169C): 0.9
The level of expressed mRNA in the presence of chemical substance/The level of expressed mRNA in the absence of chemical substance (yeast gene YDR188W): 0.9
The level of expressed mRNA in the presence of chemical substance/The level of expressed mRNA in the absence of chemical substance (yeast gene YDR212W): 0.8
The level of expressed mRNA in the presence of chemical substance/The level of expressed mRNA in the absence of chemical substance (yeast gene YDR259C): 1.0
The level of expressed mRNA in the presence of chemical substance/The level of expressed mRNA in the absence of chemical substance (yeast gene YDR315C): 0.6
The level of expressed mRNA in the presence of chemical substance/The level of expressed mRNA in the absence of chemical substance (yeast gene YDR329C): 0.8
The level of expressed mRNA in the presence of chemical substance/The level of expressed mRNA in the absence of chemical substance (yeast gene YDR358W): 1.1
The level of expressed mRNA in the presence of chemical substance/The level of expressed mRNA in the absence of chemical substance (yeast gene YDR378C): 0.9
The level of expressed mRNA in the presence of chemical substance/The level of expressed mRNA in the absence of chemical substance (yeast gene YDR388W): 0.8
The level of expressed mRNA in the presence of chemical substance/The level of expressed mRNA in the absence of chemical substance (yeast gene YDR403W): 1.0
The level of expressed mRNA in the presence of chemical substance/The level of expressed mRNA in the absence of chemical substance (yeast gene YDR432W): 0.7
The level of expressed mRNA in the presence of chemical substance/The level of expressed mRNA in the absence of chemical substance (yeast gene YDR481C): 0.9
The level of expressed mRNA in the presence of chemical substance/The level of expressed mRNA in the absence of chemical substance (yeast gene YDR510W): 1.4
The level of expressed mRNA in the presence of chemical substance/The level of expressed mRNA in the absence of chemical substance (yeast gene YDR515W): 0.8
The level of expressed mRNA in the presence of chemical substance/The level of expressed mRNA in the absence of chemical substance (yeast gene YEL005C): 0.8
The level of expressed mRNA in the presence of chemical substance/The level of expressed mRNA in the absence of chemical substance (yeast gene YEL042W): 1.0
The level of expressed mRNA in the presence of chemical substance/The level of expressed mRNA in the absence of chemical substance (yeast gene YEL066W): 0.8
The level of expressed mRNA in the presence of chemical substance/The level of expressed mRNA in the absence of chemical substance (yeast gene YER021W): 1.0
The level of expressed mRNA in the presence of chemical substance/The level of expressed mRNA in the absence of chemical substance (yeast gene YER039C): 0.9
The level of expressed mRNA in the presence of chemical substance/The level of expressed mRNA in the absence of chemical substance (yeast gene YER048C): 0.8
The level of expressed mRNA in the presence of chemical substance/The level of expressed mRNA in the absence of chemical substance (yeast gene YER100W): 0.8
The level of expressed mRNA in the presence of chemical substance/The level of expressed mRNA in the absence of chemical substance (yeast gene YER107C): 0.7
The level of expressed mRNA in the presence of chemical substance/The level of expressed mRNA in the absence of chemical substance (yeast gene YER130C): 1.0
The level of expressed mRNA in the presence of chemical substance/The level of expressed mRNA in the absence of chemical substance (yeast gene YFL022C): 0.6
The level of expressed mRNA in the presence of chemical substance/The level of expressed mRNA in the absence of chemical substance (yeast gene YFL028C): 1.1
The level of expressed mRNA in the presence of chemical substance/The level of expressed mRNA in the absence of chemical substance (yeast gene YFL043C): 0.9
The level of expressed mRNA in the presence of chemical substance/The level of expressed mRNA in the absence of chemical substance (yeast gene YGL011C): 1.0
The level of expressed mRNA in the presence of chemical substance/The level of expressed mRNA in the absence of chemical substance (yeast gene YGL094C): 0.8
The level of expressed mRNA in the presence of chemical substance/The level of expressed mRNA in the absence of chemical substance (yeast gene YGL150C): 0.8
The level of expressed mRNA in the presence of chemical substance/The level of expressed mRNA in the absence of chemical substance (yeast gene YGL158W): 1.3
The level of expressed mRNA in the presence of chemical substance/The level of expressed mRNA in the absence of chemical substance (yeast gene YGL207W): 0.7
The level of expressed mRNA in the presence of chemical substance/The level of expressed mRNA in the absence of chemical substance (yeast gene YGL229C): 1.1
The level of expressed mRNA in the presence of chemical substance/The level of expressed mRNA in the absence of chemical substance (yeast gene YGR023W): 0.9
The level of expressed mRNA in the presence of chemical substance/The level of expressed mRNA in the absence of chemical substance (yeast gene YGR036C): 1.0
The level of expressed mRNA in the presence of chemical substance/The level of expressed mRNA in the absence of chemical substance (yeast gene YGR136W): 1.2
The level of expressed mRNA in the presence of chemical substance/The level of expressed mRNA in the absence of chemical substance (yeast gene YGR189C): 1.3
The level of expressed mRNA in the presence of chemical substance/The level of expressed mRNA in the absence of chemical substance (yeast gene YGR201C): 1.9
The level of expressed mRNA in the presence of chemical substance/The level of expressed mRNA in the absence of chemical substance (yeast gene YGR213C): 10.6
The level of expressed mRNA in the presence of chemical substance/The level of expressed mRNA in the absence of chemical substance (yeast gene YGR257C): 0.9
The level of expressed mRNA in the presence of chemical substance/The level of expressed mRNA in the absence of chemical substance (yeast gene YGR270W): 0.8
The level of expressed mRNA in the presence of chemical substance/The level of expressed mRNA in the absence of chemical substance (yeast gene YGR279C): 0.7
The level of expressed mRNA in the presence of chemical substance/The level of expressed mRNA in the absence of chemical substance (yeast gene YHR004C): 0.9
The level of expressed mRNA in the presence of chemical substance/The level of expressed mRNA in the absence of chemical substance (yeast gene YHR027C): 1.0
The level of expressed mRNA in the presence of chemical substance/The level of expressed mRNA in the absence of chemical substance (yeast gene YHR071W): 0.8
The level of expressed mRNA in the presence of chemical substance/The level of expressed mRNA in the absence of chemical substance (yeast gene YHR139C): 1.6
The level of expressed mRNA in the presence of chemical substance/The level of expressed mRNA in the absence of chemical substance (yeast gene YHR142W): 1.3
The level of expressed mRNA in the presence of chemical substance/The level of expressed mRNA in the absence of chemical substance (yeast gene YHR160C): 0.8
The level of expressed mRNA in the presence of chemical substance/The level of expressed mRNA in the absence of chemical substance (yeast gene YHR161C): 1.0
The level of expressed mRNA in the presence of chemical substance/The level of expressed mRNA in the absence of chemical substance (yeast gene YHR171W): 0.8
The level of expressed mRNA in the presence of chemical substance/The level of expressed mRNA in the absence of chemical substance (yeast gene YHR195W): 0.9
The level of expressed mRNA in the presence of chemical substance/The level of expressed mRNA in the absence of chemical substance (yeast gene YIL034C): 1.0
The level of expressed mRNA in the presence of chemical substance/The level of expressed mRNA in the absence of chemical substance (yeast gene YIL062C): 0.8
The level of expressed mRNA in the presence of chemical substance/The level of expressed mRNA in the absence of chemical substance (yeast gene YIL075C): 0.8
The level of expressed mRNA in the presence of chemical substance/The level of expressed mRNA in the absence of chemical substance (yeast gene YIL123W): 0.8
The level of expressed mRNA in the presence of chemical substance/The level of expressed mRNA in the absence of chemical substance (yeast gene YIL140W): 1.0
The level of expressed mRNA in the presence of chemical substance/The level of expressed mRNA in the absence of chemical substance (yeast gene YJL073W): 1.0
The level of expressed mRNA in the presence of chemical substance/The level of expressed mRNA in the absence of chemical substance (yeast gene YJL089W): 1.2
The level of expressed mRNA in the presence of chemical substance/The level of expressed mRNA in the absence of chemical substance (yeast gene YJL113W): 0.7
